According to ChEMBL document CHEMBL5233255, “Natural and nature-inspired stilbenoids as antiviral agents” (Eur J Med Chem, 2020):
Values after ≈ are worked out from the molar mass of the structure shown.

Columns and labels:
[1] = system: Human immunodeficiency virus 1; assay: Antiviral activity against HIV-1 RF infected in human JM1 cells; assay type: functional, organism-based; conditions: Human immunodeficiency virus 1, RF
[2] = system: Human immunodeficiency virus 1; assay: Antiviral activity against HIV-1 NL 4-3 (X4) infected in human MT4 cells assessed as inhibition of virus induced cytopathic effect by MTT assay; assay type: functional, organism-based; conditions: Human immunodeficiency virus 1, NL 4-3 (X4)
[3] = Cytotoxicity against human MT4 cells by MTT assay; assay type: toxicity, cell-based
[4] = Selectivity index, ratio of CC50 for cytotoxicity against human TZM-bl cells to EC50 for antiviral activity against HIV-1 Bal (R5) infected in human TZM-bl cells; assay type: toxicity, cell-based; conditions: read-out: Ratio CC50/EC50
[5] = Cytotoxicity against human TZM-bl cells by luciferase assay; assay type: toxicity, cell-based
[6] = system: Human immunodeficiency virus 1; assay: Antiviral activity against HIV-1 Bal (R5) infected in human TZM-bl cells assessed as inhibition of virus induced cytopathic effect by luciferase based assay; assay type: functional, organism-based; conditions: Human immunodeficiency virus 1, Bal (R5)
[7] = Selectivity index, ratio of CC50 for cytotoxicity against human TZM-bl cells to EC50 for antiviral activity against HIV-1 NL 4-3 (X4) infected in human TZM-bl cells; assay type: toxicity, cell-based; conditions: read-out: Ratio CC50/EC50
[8] = Selectivity index, ratio of CC50 for cytotoxicity against human MT4 cells to EC50 for antiviral activity against HIV-1 NL 4-3 (X4) infected in human MT4 cells; assay type: toxicity, cell-based; conditions: read-out: Ratio CC50/EC50
[9] = system: Human immunodeficiency virus 1; assay: Antiviral activity against HIV-1 NL 4-3 (X4) infected in human TZM-bl cells assessed as inhibition of virus induced cytopathic effect by luciferase based assay; assay type: functional, organism-based; conditions: Human immunodeficiency virus 1, NL 4-3 (X4)
Human alphaherpesvirus 1 = assay: Antiviral activity against HSV-1 KOS infected in MDCK cells assessed as inhibition of viral replication measured after 24 hrs by plaque reduction assay; assay type: functional, organism-based; conditions: Human alphaherpesvirus 1, KOS
Human alphaherpesvirus 2 = assay: Antiviral activity against HSV-2 UW 268 infected in MDCK cells assessed as inhibition of viral replication measured after 24 hrs by plaque reduction assay; assay type: functional, organism-based; conditions: Human alphaherpesvirus 2, UW 268, MDCK
Influenza A virus [10] = assay: Antiviral activity against influenza A virus A/NWS/33 (H1N1) infected in MDCK cells; assay type: functional, organism-based
Influenza A virus [11] = assay: Antiviral activity against influenza A virus A/Guangdong/243/72 ([…]) infected in MDCK cells assessed as inhibition of virus-induced cytopathic effect; assay type: functional, organism-based
[12] = molecular target: Neuraminidase (Influenza A virus (A/Puerto Rico/8/1934(H1N1)), UniProt P03468); assay: Inhibition of influenza A virus A/PR/8/34 (H1N1) neuraminidase
Neuraminidase (Influenza A virus (A/Puerto Rico/8/1934(H1N1)), UniProt P03468), sequence (P03468 whole entry): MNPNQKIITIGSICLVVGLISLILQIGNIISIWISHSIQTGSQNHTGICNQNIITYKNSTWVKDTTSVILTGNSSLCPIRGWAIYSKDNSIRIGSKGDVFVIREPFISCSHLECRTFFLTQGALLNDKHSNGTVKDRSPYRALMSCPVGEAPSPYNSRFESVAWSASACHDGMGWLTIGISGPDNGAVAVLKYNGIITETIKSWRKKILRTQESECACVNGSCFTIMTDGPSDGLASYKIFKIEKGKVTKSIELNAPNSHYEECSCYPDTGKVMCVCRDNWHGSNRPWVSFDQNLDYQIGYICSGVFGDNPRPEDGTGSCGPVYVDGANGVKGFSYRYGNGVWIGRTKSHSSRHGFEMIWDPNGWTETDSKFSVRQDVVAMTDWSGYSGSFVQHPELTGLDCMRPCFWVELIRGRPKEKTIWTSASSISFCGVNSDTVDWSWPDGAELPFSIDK

[13] = Selectivity index, ratio of CC50 for cytotoxicity against MDCK cells to IC50 for influenza A virus A/Guangdong/243/72 ([…]) infected in MDCK cells; assay type: toxicity, cell-based; conditions: dog, read-out: Ratio CC50/IC50
[14] = system: Human immunodeficiency virus 1; assay: Antiviral activity against HIV-1 infected in human leucocytes assessed as inhibition of viral replication; assay type: functional; conditions: Human immunodeficiency virus 1, Leucocyte
[15] = system: Human immunodeficiency virus 1; assay: Antiviral activity against HIV-1 infected in human macrophages assessed as inhibition of viral replication; assay type: functional; conditions: Human immunodeficiency virus 1, Macrophage
Hepatitis C virus [16] = assay: Antiviral activity against Hepatitis C virus infected in human Huh7.5 cells assessed as reduction in viral replication; assay type: functional, organism-based, Hepacivirus hominis
Hepatitis C virus [17] = assay: Antiviral activity against Hepatitis C virus genotype 2 Rluc-J6/JFH1 infected in human Huh7.5 cells assessed as reduction in viral replication treated for 72 hrs by qRT-PCR analysis; assay type: functional, organism-based, Hepacivirus hominis; conditions: genotype 2 Rluc-J6/JFH1, Huh7.5, 72 h
Hepatitis C virus [18] = assay: Antiviral activity against Hepatitis C virus genotype 2 J6/JFH1 infected in human Huh7.5 cells assessed as reduction in viral replication treated for 72 hrs by qRT-PCR analysis; assay type: functional, organism-based, Hepacivirus hominis; conditions: genotype 2 J6/JFH1, Huh7.5, 72 h
[19] = Cytotoxicity against human Huh7.5 cells infected with Hepatitis C virus assessed as reduction in cell viability; assay type: toxicity, cell-based, Huh-7.5
Hepatitis C virus [20] = assay: Antiviral activity against Hepatitis C virus genotype 1 Bart791 infected in human Huh7.5 cells assessed as reduction in viral replication treated for 72 hrs by qRT-PCR analysis; assay type: functional, organism-based, Hepacivirus hominis; conditions: genotype 1 Bart791, Huh7.5, 72 h
[21] = Cytotoxicity against MDCK cells assessed as reduction in cell viability incubated for 72 hrs by MTT assay; assay type: toxicity, cell-based, Canis lupus familiaris; conditions: dog
Influenza A virus [22] = assay: Antiviral activity against influenza A virus A/PR/8/34 (H1N1) infected in MDCK cells preincubated 2 hrs followed by viral infection and measured after 24 hrs by MTT assay; assay type: functional, organism-based

`O=S(=O)(O)c1cc(N=C=S)ccc1/C=C/c1ccc(N=C=S)cc1S(=O)(=O)O` showed an IC50 [1] of 20000 nM.

For `Oc1cc(/C=C/c2cc(O)c(O)c(O)c2)cc(O)c1O`, the EC50 [2] was 740 nM, the CC50 [3] was 11900 nM and the selectivity ratio [4] was 12. It also gave a CC50 [5] of 20100 nM, an EC50 [6] of 1690 nM and a selectivity ratio [7] of 69. The selectivity ratio [8] was 16 and the EC50 [9] was 290 nM.

Work on `Oc1ccc([C@@H]2c3c(O)cc(O)cc3[C@@H]3c4c(cc(O)cc4[C@H]2[C@@H]2c4cc(O)cc5c4[C@@H](c4cc(O)cc(O)c4[C@H]2c2ccc(O)cc2)[C@H](c2ccc(O)cc2)O5)O[C@H]3c2ccc(O)cc2)cc1` yielded an IC50 (Human alphaherpesvirus 1) of 2800 nM, an IC50 (Human alphaherpesvirus 2) of 6400 nM and an IC50 (Influenza A virus [10]) of 6400 nM.

`O=C1C=C[C@]23[C@H](C1)Oc1cccc4c1[C@H]2[C@H](c1cc(O)cc2c1[C@@H]4[C@H](c1ccc(O)cc1)O2)[C@@H](c1cc(O)cc2c1[C@@H](c1cc(O)cc(O)c1)[C@H](c1ccc(O)cc1)O2)[C@@H]3c1ccc(O)cc1` gave an IC50 (Human alphaherpesvirus 1) of 2800 nM and an IC50 (Human alphaherpesvirus 2) of 6800 nM.

Work on `COc1cc(/C=C/c2cc(O)cc(O)c2Cc2ccc(O)c(O)c2)ccc1O` yielded an IC50 (Influenza A virus [11]) of 6.17 µg/mL (≈ 16.2 µM), an IC50 [12] of 13100 nM and a selectivity ratio [13] of 32.4.

For `CC(=O)CC(=O)Nc1ccc(/C=C/c2ccc(-n3nccc3O)cc2S(=O)(=O)O)c(S(=O)(=O)O)c1`, the EC90 [14] was 500 nM and the EC90 [15] was 500 nM.

For `Oc1ccc(C2Oc3ccc(/C=C/c4cc(O)cc5c4C(c4cc(O)cc(O)c4)C(c4ccc(O)cc4)O5)cc3C2c2cc(O)cc3c2C(c2cc(O)cc(O)c2)C(c2ccc(O)cc2)O3)cc1` (stereo unspecified), the EC50 (Hepatitis C virus [16]) was 6 nM, the EC50 (Hepatitis C virus [17]) was 3 nM and the EC50 (Hepatitis C virus [18]) was 3 nM. It also gave a CC50 [19] greater than 10000 nM and an EC50 (Hepatitis C virus [20]) of 1 nM.

For `O=C(O)c1ccccc1/N=N/c1ccc(O)cc1O`, the CC50 at 72 h [21] was greater than 100 µg/mL and the EC50 (Influenza A virus [22]) was 7.28 µg/mL (≈ 28.2 µM).
